Source: patent publication US7939534B2, “Certain chemical entities, compositions, and methods” (Cytokinetics, Inc., priority 2006, dated 2011)
pIC50: −log10 of the molar value.

Biological target: T1, chicken gizzard smooth muscle myosin subfragment-1 chemically crosslinked to either cardiac or skeletal actin (Gallus gallus, UniProt P10587)
T1 construct: chicken gizzard smooth muscle myosin subfragment-1; from tissue; host or cells: chicken gizzard
Experiment: Dose dependent smooth muscle myosin ATPase modulation (pyruvate kinase/horseradish peroxidase/pyruvate oxidase-coupled ATPase assay)
Assay type: biochemical
Settings: read-out: IC50 Arithmetic Mean
Summary of the method: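 Chicken gizzard smooth muscle myosin S1 crosslinked (EDC/NHS) to cardiac or skeletal actin, concentration titrated to a set ATPase rate. Pyruvate kinase/pyruvate oxidase/HRP-coupled assay, 0.15 mM ATP, 12 mM K-PIPES pH 7.00, 100 mM KCl, amplex red fluorescence; IC50 from 4-parameter fit.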

Compound | pIC50
CC(C)(C)OC(=O)N1CCC[C@@H]1CNC(=O)c1cc(F)c(N2CCCC2)nc1NCCc1cccc(F)c1 [Compound 80, tert-butyl (2R)-2-{[(5-fluoro-2-{[2-(3-fluorophenyl)ethyl]amino}-6-pyrrolidinyl(3-pyridyl))carbonylamino]methyl}pyrrolidinecarboxylate] | 5.16
C[C@H](CNC(=O)c1cc(F)c(N2CCCC2)nc1NCCc1cccc(F)c1)NC(=O)CN [Compound 82, N-{(1R)-2-[(5-fluoro-2-{[2-(3-fluorophenyl)ethyl]amino}-6-pyrrolidinyl(3-pyridyl))carbonylamino]-isopropyl}-2-aminoacetamide] | 6.70
CS(=O)(=O)N1CC=C(c2ccc(C(=O)NCc3cccnc3)c(NCCc3cccc(F)c3)n2)CC1 [Compound 83, (2-{[2-(3-fluorophenyl)ethyl]amino}-6-[1-(methylsulfonyl)(4-1,2,5,6-tetrahydropyridyl)](3-pyridyl))-N-(3-pyridylmethyl)carboxamide] | 5.19
CN(C)C(=O)N1CCN(c2ccc(C(=O)NCc3cccnc3)c(NCCc3cccc(F)c3)n2)CC1 [Compound 84, [4-(6-{[2-(3-fluorophenyl)ethyl]amino}-5-[N-(3-pyridylmethyl)carbamoyl](2-pyridyl))piperazinyl]-N,N-dimethylcarboxamide] | 4.31
COC(=O)N1CCN(c2ccc(C(=O)NCc3cccnc3)c(NCCc3cccc(F)c3)n2)CC1 [Compound 85, methyl 4-(6-{[2-(3-fluorophenyl)ethyl]amino}-5-[N-(3-pyridylmethyl)carbamoyl]-2-pyridyl)piperazinecarboxylate] | 5.81
NC1CCN(c2ccc(C(=O)NCc3cccnc3)c(NCCc3cccc(F)c3)n2)C1 (stereo not drawn) [Compound 86, (6-(3-aminopyrrolidinyl)-2-{[2-(3-fluorophenyl)ethyl]amino}(3-pyridyl))-N-(3-pyridylmethyl)carboxamide] | 4.64
O=C(NCc1cccnc1)c1ccc(N2CCC[C@@H]2CO)nc1NCCc1cccc(F)c1 [Compound 88, (6-[(2R)-2-(hydroxymethyl)pyrrolidinyl]-2-{[2-(3-fluorophenyl)ethyl]amino}(3-pyridyl))-N-(3-pyridylmethyl)carboxamide] | 4.98
CNC(=O)CNC(=O)c1ccc(N2CC[C@H](O)C2)nc1NCCc1cccc(F)c1 [Compound 89, 2-[(6-((3S)-3-hydroxypyrrolidinyl)-2-{[2-(3-fluorophenyl)ethyl]amino}(3-pyridyl))carbonylamino]-N-methylacetamide] | 5.08
CC(C)(C)OC(=O)NC1CCN(c2ccc(C(=O)NCc3cccnc3)c(NCCc3cccc(F)c3)n2)C1 (stereo not drawn) [Compound 91, (tert-butoxy)-N-[1-(6-{[2-(3-fluorophenyl)ethyl]amino}-5-[N-(3-pyridylmethyl)carbamoyl](2-pyridyl))pyrrolidin-3-yl]carboxamide] | 4.73
CN(C)[C@@H]1CCN(c2ccc(C(=O)NCc3cccnc3)c(NCCc3cccc(F)c3)n2)C1 [Compound 92, (6-[(3R)-3-(dimethylamino)pyrrolidinyl]-2-{[2-(3-fluorophenyl)ethyl]amino}(3-pyridyl))-N-(3-pyridylmethyl)carboxamide] | 4.12
O=C(O)CC1CCN(c2ccc(C(=O)NCc3cccnc3)c(NCCc3cccc(F)c3)n2)C1 (stereo not drawn) [Compound 95, 2-[1-(6-{[2-(3-fluorophenyl)ethyl]amino}-5-[N-(3-pyridylmethyl)carbamoyl]-2-pyridyl)pyrrolidin-3-yl]acetic acid] | 5.25
NCc1cccc(CNC(=O)c2ccc(N3CCCCC3)nc2NCCc2cccc(F)c2)n1 [Compound 101, N-{[6-(aminomethyl)(2-pyridyl)]methyl}(2-{[2-(3-fluorophenyl)ethyl]amino}-6-piperidyl(3-pyridyl))carboxamide] | 6.48
NCc1cccc(CNC(=O)c2ccc(N3CC[C@@H](O)C3)nc2NCCc2cccc(F)c2)n1 [Compound 103, (6-((3R)-3-hydroxypyrrolidinyl)-2-{[2-(3-fluorophenyl)ethyl]amino}(3-pyridyl))-N-{[6-(aminomethyl)(2-pyridyl)]methyl}carboxamide] | 5.65
O=C(NCc1cccnc1)c1ccc(N2CC[C@@H](F)C2)nc1NCCc1cccc(F)c1 [Compound 104, (6-((3R)-3-fluoropyrrolidinyl)-2-{[2-(3-fluorophenyl)ethyl]amino}(3-pyridyl))-N-(3-pyridylmethyl)carboxamide] | 6.97

Further compounds by rising pIC50, results first:

pIC50 | Compound
5.02 | CNC(=O)CNC(=O)c1ccc(N2CCC(O)CC2)nc1NCCc1cccc(F)c1 [Compound 90, 2-[(2-{[2-(3-fluorophenyl)ethyl]amino}-6-(4-hydroxypiperidyl)(3-pyridyl))carbonylamino]-N-methylacetamide]
5.51 | NCc1cccc(CNC(=O)c2ccc(N3CC[C@H](O)C3)nc2NCCc2cccc(F)c2)n1 [Compound 102, (6-((3S)-3-hydroxypyrrolidinyl)-2-{[2-(3-fluorophenyl)ethyl]amino}(3-pyridyl))-N-{[6-(aminomethyl)(2-pyridyl)]methyl}carboxamide]
5.53 | O=C(NCc1cccnc1)c1ccc(N2CCC(c3ccncc3)C2)nc1NCCc1cccc(F)c1 (stereo not drawn) [Compound 96, (2-{[2-(3-fluorophenyl)ethyl]amino}-6-(3-(4-pyridyl)pyrrolidinyl)(3-pyridyl))-N-(3-pyridylmethyl)carboxamide]
5.57 | O=C(NCc1cccnc1)c1ccc(N2CCOCC2)nc1NCCc1cccc(F)c1 [Compound 87, (2-{[2-(3-fluorophenyl)ethyl]amino}-6-morpholin-4-yl(3-pyridyl))-N-(3-pyridylmethyl)carboxamide]
5.60 | O=C(NCc1cccnc1)c1ccc(N2CCC(C(F)(F)F)C2)nc1NCCc1cccc(F)c1 (stereo not drawn) [Compound 99, (2-{[2-(3-fluorophenyl)ethyl]amino}-6-[3-(trifluoromethyl)pyrrolidinyl](3-pyridyl))-N-(3-pyridylmethyl)carboxamide]
5.74 | O=C(NC[C@H]1CCCN1)c1cc(F)c(N2CCCC2)nc1NCCc1cccc(F)c1 [Compound 79, N-[((2R)pyrrolidin-2-yl)methyl](5-fluoro-2-{[2-(3-fluorophenyl)ethyl]amino}-6-pyrrolidinyl(3-pyridyl))carboxamide]
5.88 | NCc1ncccc1CNC(=O)c1cc(F)c(C2CC2)nc1NCCc1cccc(F)c1 [Compound 81, N-{[2-(aminomethyl)(3-pyridyl)]methyl}(6-cyclopropyl-5-fluoro-2-{[2-(3-fluorophenyl)ethyl]amino}(3-pyridyl))carboxamide]
6.03 | CNC(=O)CNC(=O)c1ccc(N2CCC(F)(F)C2)nc1NCCc1cccc(F)c1 [Compound 97, 2-[(6-(3,3-difluoropyrrolidinyl)-2-{[2-(3-fluorophenyl)ethyl]amino}(3-pyridyl))carbonylamino]-N-methylacetamide]
6.56 | O=C(NCc1cccnc1)c1ccc(N2CCC(F)(F)C2)nc1NCCc1cccc(F)c1 [Compound 100, (6-(3,3-difluoropyrrolidinyl)-2-{[2-(3-fluorophenyl)ethyl]amino}(3-pyridyl))-N-(3-pyridylmethyl)carboxamide]
6.67 | NCc1cccc(CNC(=O)c2ccc(N3CCCC3)nc2NCCc2cccc(F)c2)n1 [Compound 98, N-{[6-(aminomethyl)(2-pyridyl)]methyl}(2-{[2-(3-fluorophenyl)ethyl]amino}-6-pyrrolidinyl(3-pyridyl))carboxamide]
